Patent US11945794B2, “Nuclear transport modulators and uses thereof” (Karyopharm Therapeutics Inc., priority 2013, dated 2024)

Experiments:
Assay in all cases: MTT assay panel
Type in all cases: cell-based
CAPAN-1 = settings: Homo sapiens; CAPAN-1 cells, 72 hours
Protocol: (§1) Compound 124 was further tested against a panel of selected solid and hematological cancer cell lines and selected normal cell lines in an MTT assay. Briefly, the various cell lines above were plated at different densities on day 1. […] Cell Titer AQueous One was added to each well, and the plates were read in a plate reader at OD 495.

Calu-3 = settings: Homo sapiens; Calu-3 cells, 72 hours
Protocol: as §1

Calu-6 = settings: Homo sapiens; Calu-6 cells, 72 hours
Protocol: as §1

Daudi = settings: Homo sapiens; Daudi cells, 72 hours
Protocol: as §1

HCC-827 = settings: Homo sapiens, HCC827; HCC-827 cells, 72 hours
Protocol: as §1

HCT-15 = settings: Homo sapiens; HCT-15 cells, 72 hours
Protocol: as §1

HCT116.1 = HCT116.1 cells, 72 hours
Protocol: as §1

HPAF-II = settings: Homo sapiens; HPAF-II cells, 72 hours
Protocol: as §1

HS-Sultan = HS-Sultan cells, 72 hours
Protocol: as §1

HT1080 = settings: Homo sapiens, HT-1080; HT1080 cells, 72 hours
Protocol: as §1

KG-1 = settings: Homo sapiens; KG-1 cells, 72 hours
Protocol: as §1

LN18 = settings: Homo sapiens, LN-18; LN18 cells, 72 hours
Protocol: as §1

LS-174T = settings: Homo sapiens, LS174T; LS-174T cells, 72 hours
Protocol: as §1

LS-180 = settings: Homo sapiens, LS180; LS-180 cells, 72 hours
Protocol: as §1

LoVo = settings: Homo sapiens; LoVo cells, 72 hours
Protocol: as §1

MDA-MB-231 = settings: Homo sapiens; MDA-MB-231 cells, 72 hours
Protocol: as §1

MM1R = settings: MM.1R; MM1R cells, 72 hours
Protocol: as §1

MO7e = MO7e cells, 72 hours
Protocol: as §1

MOLT4 = settings: Homo sapiens, MOLT-4; MOLT4 cells, 72 hours
Protocol: as §1

MV-4-11 = settings: Homo sapiens, MV4-11; MV-4-11 cells, 72 hours
Protocol: as §1

NCI-H1299 = settings: Homo sapiens; NCI-H1299 cells, 72 hours
Protocol: as §1

NCI-H1563 = settings: Homo sapiens; NCI-H1563 cells, 72 hours
Protocol: as §1

NCI-H2122 = settings: Homo sapiens; NCI-H2122 cells, 72 hours
Protocol: as §1

NCI-H28 = settings: Homo sapiens; NCI-H28 cells, 72 hours
Protocol: as §1

NCI-H358 = settings: Homo sapiens; NCI-H358 cells, 72 hours
Protocol: as §1

NCI-H520 = settings: Homo sapiens; NCI-H520 cells, 72 hours
Protocol: as §1

OCIAML5 = settings: Homo sapiens, OCI-AML-5; OCIAML5 cells, 72 hours
Protocol: as §1

PANC-10.05 = settings: Homo sapiens, Panc1005; PANC-10.05 cells, 72 hours
Protocol: as §1

PATU-8988S = PATU-8988S cells, 72 hours
Protocol: as §1

PL-45 = settings: PL45; PL-45 cells, 72 hours
Protocol: as §1

Pfieffer = Pfieffer cells, 72 hours
Protocol: as §1

SHSY5Y = settings: Homo sapiens, SH-SY5Y; SHSY5Y cells, 72 hours
Protocol: as §1

SW-1116 = settings: Homo sapiens; SW-1116 cells, 72 hours
Protocol: as §1

SW-403 = settings: Homo sapiens; SW-403 cells, 72 hours
Protocol: as §1

SW-620 = settings: Homo sapiens; SW-620 cells, 72 hours
Protocol: as §1

SW-948 = settings: Homo sapiens, SW948; SW-948 cells, 72 hours
Protocol: as §1

THP1 = settings: Homo sapiens, THP-1; THP1 cells, 72 hours
Protocol: as §1

Toledo = settings: Homo sapiens; Toledo cells, 72 hours
Protocol: as §1

U-266 = settings: Homo sapiens; U-266 cells, 72 hours
Protocol: as §1

U-937 = settings: Homo sapiens; U-937 cells, 72 hours
Protocol: as §1

NC(=O)/C(=C/n1cnc(-c2cc(C(F)(F)F)cc(C(F)(F)F)c2)n1)c1cncnc1 [Compound 124, (E)-3-(3-(3,5-bis(trifluoromethyl)phenyl)-1H-1,2,4-triazol-1-yl)-2-(pyrimidin-5-yl)acrylamide]
IC50 (CAPAN-1): 20 nM | IC50 (Calu-3): 1380 nM | IC50 (Calu-6): 1270 nM | IC50 (Daudi): 8 nM | IC50 (HCC-827): 460 nM | IC50 (HCT-15): 460 nM | IC50 (HCT116.1): 200 nM | IC50 (HPAF-II): > 10000 nM | IC50 (HS-Sultan): 60 nM | IC50 (HT1080): 310 nM | IC50 (KG-1): 90 nM | IC50 (LN18): 2060 nM | IC50 (LS-174T): 10000 nM | IC50 (LS-180): > 10000 nM | IC50 (LoVo): 680 nM | IC50 (MDA-MB-231): 120 nM | IC50 (MM1R): 8 nM | IC50 (MO7e): 20 nM | IC50 (MOLT4): 10 nM | IC50 (MV-4-11): 100 nM | IC50 (NCI-H1299): 50 nM | IC50 (NCI-H1563): 7820 nM | IC50 (NCI-H2122): 840 nM | IC50 (NCI-H28): 340 nM | IC50 (NCI-H358): 420 nM | IC50 (NCI-H520): 1300 nM | IC50 (OCIAML5): 40 nM | IC50 (PANC-10.05): 990 nM | IC50 (PATU-8988S): 10000 nM | IC50 (PL-45): 6940 nM | IC50 (Pfieffer): 140 nM | IC50 (SHSY5Y): 50 nM | IC50 (SW-1116): 410 nM | IC50 (SW-403): 910 nM | IC50 (SW-620): 420 nM | IC50 (SW-948): > 10000 nM | IC50 (THP1): 3380 nM | IC50 (Toledo): 70 nM | IC50 (U-266): 230 nM | IC50 (U-937): 250 nM
